According to PubChem BioAssay AID1259407 (Chemical Carcinogenesis Research Information System (CCRIS), 2018):
Activity calls are given as the source filed them. The rule behind the calls is not given here.

System: CCRIS mutagenicity, Ames/micronucleus/aberration tests
Assay: CCRIS mutagenicity studies
[1] = Test System: AMES SALMONELLA TYPHIMURIUM, Strain/Indicator: TA100, Metabolic Activation: NONE, Method: STANDARD PLATE

`O=C(O)c1cc(=O)c2c(OCC(O)COc3cccc4oc(C(=O)O)cc(=O)c34)cccc2o1` was tested, and the mutagenic call (Test System: AMES SALMONELLA TYPHIMURIUM, Strain/Indicator: TA97, Metabolic Activation: HAMSTER, LIVER, S-9, AROCLOR 1254, Method: STANDARD PLATE) was “inactive; negative”, the mutagenic call (Test System: AMES SALMONELLA TYPHIMURIUM, Strain/Indicator: TA97, Metabolic Activation: NONE, Method: STANDARD PLATE) was “inactive; negative” and the mutagenic call (Test System: AMES SALMONELLA TYPHIMURIUM, Strain/Indicator: TA97, Metabolic Activation: RAT, LIVER, S-9, AROCLOR 1254, Method: STANDARD PLATE) was “inactive; negative”. For the same compound, the mutagenic call (Test System: AMES SALMONELLA TYPHIMURIUM, Strain/Indicator: TA98, Metabolic Activation: HAMSTER, LIVER, S-9, AROCLOR 1254 (2.5-20%), Method: STANDARD PLATE) was “inactive; negative”, the mutagenic call (Test System: AMES SALMONELLA TYPHIMURIUM, Strain/Indicator: TA98, Metabolic Activation: HAMSTER, LIVER, S-9, AROCLOR 1254, Method: STANDARD PLATE) was “inactive; negative” and the mutagenic call (Test System: AMES SALMONELLA TYPHIMURIUM, Strain/Indicator: TA98, Metabolic Activation: NONE, Method: STANDARD PLATE) was “inactive; negative”. For the same compound, the mutagenic call (Test System: AMES SALMONELLA TYPHIMURIUM, Strain/Indicator: TA98, Metabolic Activation: RAT, LIVER, S-9, AROCLOR 1254 (2.5-20%), Method: STANDARD PLATE) was “inactive; negative”, the mutagenic call (Test System: AMES SALMONELLA TYPHIMURIUM, Strain/Indicator: TA98, Metabolic Activation: RAT, LIVER, S-9, AROCLOR 1254, Method: STANDARD PLATE) was “inactive; negative” and the mutagenic call (Test System: AMES SALMONELLA TYPHIMURIUM, Strain/Indicator: TA100, Metabolic Activation: HAMSTER, LIVER, S-9, AROCLOR 1254, Method: STANDARD PLATE) was “inactive; negative”. For the same compound, the mutagenic call [1] was “inactive; negative”, the mutagenic call (Test System: AMES SALMONELLA TYPHIMURIUM, Strain/Indicator: TA100, Metabolic Activation: RAT, LIVER, S-9, AROCLOR 1254, Method: STANDARD PLATE) was “inactive; negative” and the mutagenic call (Test System: AMES SALMONELLA TYPHIMURIUM, Strain/Indicator: TA1535, Metabolic Activation: HAMSTER, LIVER, S-9, AROCLOR 1254, Method: STANDARD PLATE) was “inactive; negative”. For the same compound, the mutagenic call (Test System: AMES SALMONELLA TYPHIMURIUM, Strain/Indicator: TA1535, Metabolic Activation: NONE, Method: STANDARD PLATE) was “inactive; negative”, the mutagenic call (Test System: AMES SALMONELLA TYPHIMURIUM, Strain/Indicator: TA1535, Metabolic Activation: RAT, LIVER, S-9, AROCLOR 1254, Method: STANDARD PLATE) was “inactive; negative” and the mutagenic call (Test System: AMES SALMONELLA TYPHIMURIUM, Strain/Indicator: TA1537, Metabolic Activation: HAMSTER, LIVER, S-9, AROCLOR 1254, Method: STANDARD PLATE) was “inactive; negative”. The mutagenic call (Test System: AMES SALMONELLA TYPHIMURIUM, Strain/Indicator: TA1537, Metabolic Activation: NONE, Method: STANDARD PLATE) was “inactive; negative”, the mutagenic call (Test System: AMES SALMONELLA TYPHIMURIUM, Strain/Indicator: TA1537, Metabolic Activation: RAT, LIVER, S-9, AROCLOR 1254, Method: STANDARD PLATE) was “inactive; negative” and the mutagenic call (Test System: AMES SALMONELLA TYPHIMURIUM, Strain/Indicator: TA1538, Metabolic Activation: HAMSTER, LIVER, S-9, AROCLOR 1254 (2.5-20%), Method: STANDARD PLATE) was “inactive; negative”. For the same compound, the mutagenic call (Test System: AMES SALMONELLA TYPHIMURIUM, Strain/Indicator: TA1538, Metabolic Activation: HAMSTER, LIVER, S-9, AROCLOR 1254, Method: STANDARD PLATE) was “inactive; negative”, the mutagenic call (Test System: AMES SALMONELLA TYPHIMURIUM, Strain/Indicator: TA1538, Metabolic Activation: NONE, Method: STANDARD PLATE) was “inactive; negative” and the mutagenic call (Test System: AMES SALMONELLA TYPHIMURIUM, Strain/Indicator: TA1538, Metabolic Activation: RAT, LIVER, S-9, AROCLOR 1254 (2.5-20%), Method: STANDARD PLATE) was “inactive; negative”. For the same compound, the mutagenic call (Test System: AMES SALMONELLA TYPHIMURIUM, Strain/Indicator: TA1538, Metabolic Activation: RAT, LIVER, S-9, AROCLOR 1254, Method: STANDARD PLATE) was “inactive; negative”, the mutagenic call (Test System: MOUSE LYMPHOMA, Strain/Indicator: L5178Y (TK+/TK-), Metabolic Activation: NONE, Method: SUSPENSION/PLATE) was “inactive; negative; reevaluation of results: negative” and the mutagenic call (Test System: MOUSE LYMPHOMA, Strain/Indicator: L5178Y (TK+/TK-), Metabolic Activation: RAT, LIVER, S-9, AROCLOR 1254, Method: SUSPENSION/PLATE) was “inactive; negative. reevaluation of results: negative”.
`O=C1C=CC(=C(Cl)Cl)O1` was tested, and the mutagenic call [1] was “active; positive”.
With `CCc1cc(C(N)=S)ccn1` the mutagenic call (End Point: IN VITRO CHROMOSOMAL ABERRATIONS, Test System: CHO CELLS, Metabolic Activation: NONE) was “inactive; negative; significant increase at 7 mm attributed to precipitation”, the mutagenic call (Test System: AMES SALMONELLA TYPHIMURIUM, Strain/Indicator: TA97, Metabolic Activation: HAMSTER, LIVER, S-9, AROCLOR 1254 (10%), Method: PREINCUBATION) was “inactive; negative” and the mutagenic call (Test System: AMES SALMONELLA TYPHIMURIUM, Strain/Indicator: TA97, Metabolic Activation: HAMSTER, LIVER, S-9, AROCLOR 1254 (30%), Method: PREINCUBATION) was “inactive; negative”. For the same compound, the mutagenic call (Test System: AMES SALMONELLA TYPHIMURIUM, Strain/Indicator: TA97, Metabolic Activation: NONE, Method: PREINCUBATION) was “inactive; negative”, the mutagenic call (Test System: AMES SALMONELLA TYPHIMURIUM, Strain/Indicator: TA97, Metabolic Activation: RAT, LIVER, S-9, AROCLOR 1254 (10%), Method: PREINCUBATION) was “inactive; negative” and the mutagenic call (Test System: AMES SALMONELLA TYPHIMURIUM, Strain/Indicator: TA97, Metabolic Activation: RAT, LIVER, S-9, AROCLOR 1254 (30%), Method: PREINCUBATION) was “inactive; negative”. The mutagenic call (Test System: AMES SALMONELLA TYPHIMURIUM, Strain/Indicator: TA98, Metabolic Activation: HAMSTER, LIVER, S-9, AROCLOR 1254 (10%), Method: PREINCUBATION) was “inactive; negative”, the mutagenic call (Test System: AMES SALMONELLA TYPHIMURIUM, Strain/Indicator: TA98, Metabolic Activation: HAMSTER, LIVER, S-9, AROCLOR 1254 (30%), Method: PREINCUBATION) was “inactive; negative” and the mutagenic call (Test System: AMES SALMONELLA TYPHIMURIUM, Strain/Indicator: TA98, Metabolic Activation: NONE, Method: PREINCUBATION) was “inactive; negative”. The mutagenic call (Test System: AMES SALMONELLA TYPHIMURIUM, Strain/Indicator: TA98, Metabolic Activation: RAT, LIVER, S-9, AROCLOR 1254 (10%), Method: PREINCUBATION) was “inactive; negative”, the mutagenic call (Test System: AMES SALMONELLA TYPHIMURIUM, Strain/Indicator: TA98, Metabolic Activation: RAT, LIVER, S-9, AROCLOR 1254 (30%), Method: PREINCUBATION) was “inactive; negative” and the mutagenic call (Test System: AMES SALMONELLA TYPHIMURIUM, Strain/Indicator: TA100, Metabolic Activation: HAMSTER, LIVER, S-9, AROCLOR 1254 (10%), Method: PREINCUBATION) was “inactive; negative”. For the same compound, the mutagenic call (Test System: AMES SALMONELLA TYPHIMURIUM, Strain/Indicator: TA100, Metabolic Activation: HAMSTER, LIVER, S-9, AROCLOR 1254 (30%), Method: PREINCUBATION) was “inactive; negative”, the mutagenic call (Test System: AMES SALMONELLA TYPHIMURIUM, Strain/Indicator: TA100, Metabolic Activation: NONE, Method: PREINCUBATION) was “inactive; negative” and the mutagenic call (Test System: AMES SALMONELLA TYPHIMURIUM, Strain/Indicator: TA100, Metabolic Activation: RAT, LIVER, S-9, AROCLOR 1254 (10%), Method: PREINCUBATION) was “inactive; negative”. For the same compound, the mutagenic call (Test System: AMES SALMONELLA TYPHIMURIUM, Strain/Indicator: TA100, Metabolic Activation: RAT, LIVER, S-9, AROCLOR 1254 (30%), Method: PREINCUBATION) was “inactive; negative”, the mutagenic call (Test System: AMES SALMONELLA TYPHIMURIUM, Strain/Indicator: TA1535, Metabolic Activation: HAMSTER, LIVER, S-9, AROCLOR 1254 (10%), Method: PREINCUBATION) was “inactive; negative” and the mutagenic call (Test System: AMES SALMONELLA TYPHIMURIUM, Strain/Indicator: TA1535, Metabolic Activation: HAMSTER, LIVER, S-9, AROCLOR 1254 (30%), Method: PREINCUBATION) was “inactive; negative”. The mutagenic call (Test System: AMES SALMONELLA TYPHIMURIUM, Strain/Indicator: TA1535, Metabolic Activation: NONE, Method: PREINCUBATION) was “inactive; negative”, the mutagenic call (Test System: AMES SALMONELLA TYPHIMURIUM, Strain/Indicator: TA1535, Metabolic Activation: RAT, LIVER, S-9, AROCLOR 1254 (10%), Method: PREINCUBATION) was “inactive; negative” and the mutagenic call (Test System: AMES SALMONELLA TYPHIMURIUM, Strain/Indicator: TA1535, Metabolic Activation: RAT, LIVER, S-9, AROCLOR 1254 (30%), Method: PREINCUBATION) was “inactive; negative”.
